In experiment [1] the target is T1, Caspase 1 (Homo sapiens, UniProt P29466).
T1 construct: Reaction Biology Corporation (contract testing)
Kind of experiment: Protease panel: Caspase 1. Format: biochemical. The note with it: supplement panel table, test and control compound.

Experiment [2] concerns the target T2, Caspase 2 (Homo sapiens, UniProt P42575).
T2 construct: Reaction Biology Corporation (contract testing)
Put plainly: Protease panel: Caspase 2. The note with it: supplement panel table, test and control compound. The class given is biochemical.

Experiment [3] deals with T3, Caspase 4 (Homo sapiens, UniProt P49662).
T3 construct: Reaction Biology Corporation (contract testing)
Put plainly: Protease panel: Caspase 4. The class given is biochemical. Particulars: supplement panel table, test and control compound.

The target in experiment [4] is T4, Caspase 5 (Homo sapiens, UniProt P51878).
T4 construct: Reaction Biology Corporation (contract testing)
Kind of experiment: Protease panel: Caspase 5. Format: biochemical. The note with it: supplement panel table, test and control compound.

Experiment [5] addresses T5, Caspase 8 (Homo sapiens, UniProt Q14790).
T5 construct: Reaction Biology Corporation (contract testing)
Kind of experiment: Protease panel: Caspase 8. The note with it: supplement panel table, test and control compound. The class given is biochemical.

Experiment [6] concerns the target T6, Caspase 9 (Homo sapiens, UniProt P55211).
T6 construct: Reaction Biology Corporation (contract testing)
Kind of experiment: Protease panel: Caspase 9. Format: biochemical. The note with it: supplement panel table, test and control compound.

Experiment [7] deals with T7, Caspase 10 (Homo sapiens, UniProt Q92851).
T7 construct: Reaction Biology Corporation (contract testing)
Put plainly: Protease panel: Caspase 10. Particulars: supplement panel table, test and control compound. Format: biochemical.

For experiment [8], the target named is T8, Caspase 11 (Mus musculus, UniProt P70343).
T8 construct: Reaction Biology Corporation (contract testing)
Kind of experiment: Protease panel: Caspase 11. The note with it: supplement panel table, test and control compound. The class given is biochemical.

The subject of experiment [9] is M. smegmatis ΔprcAB. The class given is cell-based. The note with it: 24 h exposure, OD600; concentration inhibiting 50% of growth.
In experiment [10] the test system is M. tuberculosis H37Rv. Put plainly: microbe, parasite or virus in culture. The class given is cell-based. Particulars: Mycobacterium tuberculosis, H37RV, 120 h, 5 days; for MIC50: read-out: MIC50 (μM) against M. tuberculosis H37Rv; for MIC90: read-out: MIC90 (μM) against M. tuberculosis H37Rv.
Experiment [11] concerns the target ClpP1P2 (Mycolicibacterium smegmatis, UniProt A0R197+A0R198). Put plainly: ClpP1P2 inhibition whole-cell RFP-SsrA reporter assay. Particulars: M. smegmatis ΔprcAB IC50 (μM) for ClpP1P2, whole-cell RFP-SsrA reporter, 3 h incubation. In general terms: Reporter assays use an easily measured gene product as a stand-in for the process of interest.
Experiment [12] concerns the target HepG2 proteasome (Homo sapiens, UniProt P20618+P28074). Kind of experiment: Cell-based proteasome CT-like peptidase inhibition assay (Proteasome-Glo).
Protocol: A cell-based CT-like peptidase assay was performed using the Proteasome-Glo cell-based assay reagent (Promega) according to the manufacturer's guidelines. Briefly, HepG2 cells (10^4 cells/well) were treated with the compounds indicated in the figures for 2 h, followed by incubation with the luminescent substrate for 10 min. Luminescence was detected with a Tecan M200 Pro plate reader.
The target of experiment [13] is T9, Calpain 1 (Homo sapiens, UniProt P07384).
T9 construct: Reaction Biology Corporation (contract testing)
Kind of experiment: Protease panel: Calpain 1. Format: biochemical. The note with it: supplement panel table, test and control compound.

For experiment [14], the target named is T10, Cathepsin B (Homo sapiens, UniProt P07858).
T10 construct: Reaction Biology Corporation (contract testing)
Kind of experiment: Protease panel: Cathepsin B. The class given is biochemical. The note with it: supplement panel table, test and control compound.

Experiment [15] concerns the target T11, Cathepsin C (Homo sapiens, UniProt P53634).
T11 construct: Reaction Biology Corporation (contract testing)
Put plainly: Protease panel: Cathepsin C. Format: biochemical. Particulars: supplement panel table, test and control compound.

Experiment [16] concerns the target Cathepsin H (Homo sapiens, UniProt P09668). Kind of experiment: Protease panel: Cathepsin H. Particulars: supplement panel table, test and control compound. Format: biochemical.
In experiment [17] the target is Cathepsin L (Homo sapiens, UniProt P07711). Put plainly: Protease panel: Cathepsin L. Format: biochemical. Particulars: supplement panel table, test and control compound.
Experiment [18] addresses Cathepsin S (Homo sapiens, UniProt P25774). Kind of experiment: Protease panel: Cathepsin S. Particulars: supplement panel table, test and control compound. Format: biochemical.
The target of experiment [19] is Cathepsin V (Homo sapiens, UniProt O60911). Kind of experiment: Protease panel: Cathepsin V. Format: biochemical. Particulars: supplement panel table, test and control compound.
The target in experiment [20] is T12, Papain (Carica papaya, UniProt P00784).
T12 construct: Reaction Biology Corporation (contract testing)
Put plainly: Protease panel: Papain. Format: biochemical. The note with it: supplement panel table, test and control compound.

Experiment [21] addresses T13, Cathepsin G (Homo sapiens, UniProt P08311).
T13 construct: Reaction Biology Corporation (contract testing)
Kind of experiment: Protease panel: Cathepsin G. Format: biochemical. The note with it: supplement panel table, test and control compound.

For experiment [22], the target named is Chymase (Homo sapiens, UniProt P23946). Kind of experiment: Protease panel: Chymase. The class given is biochemical. Particulars: supplement panel table, test and control compound.
The target of experiment [23] is T14, Caspase 7 (Homo sapiens, UniProt P55210).
T14 construct: Reaction Biology Corporation (contract testing)
Put plainly: Protease panel: Caspase 7. The class given is biochemical. Particulars: supplement panel table, test and control compound.

Experiment [24] has as its target Kallikrein 1 (Homo sapiens, UniProt P06870). Put plainly: Protease panel: Kallikrein 1. Format: biochemical. The note with it: supplement panel table, test and control compound.
Experiment [25] addresses T15, Neprilysin (Homo sapiens, UniProt P08473).
T15 construct: Reaction Biology Corporation (contract testing)
Put plainly: Protease panel: Neprilysin. The class given is biochemical. Particulars: supplement panel table, test and control compound. Here is the method: Protease panel testing was carried out by Reaction Biology Corporation.

The IC50 is the midpoint of a concentration-inhibition curve.

Structures are written as SMILES. In brackets after ≈: the same amount, converted by molar mass. Several values for one entry are separate records, joined by “and”; a condition that tells them apart may be missing. Identical values can stand only once. Residues, ends and D or L forms follow the SMILES beside them.

Chain of ClpP1P2 (A0R198 4-203): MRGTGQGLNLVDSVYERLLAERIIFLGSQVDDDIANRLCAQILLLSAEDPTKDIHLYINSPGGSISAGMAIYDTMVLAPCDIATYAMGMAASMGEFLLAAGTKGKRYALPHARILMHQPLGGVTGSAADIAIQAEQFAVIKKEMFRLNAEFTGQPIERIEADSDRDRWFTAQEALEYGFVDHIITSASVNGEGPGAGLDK
Chain of ClpP1P2 (A0R197 17-218): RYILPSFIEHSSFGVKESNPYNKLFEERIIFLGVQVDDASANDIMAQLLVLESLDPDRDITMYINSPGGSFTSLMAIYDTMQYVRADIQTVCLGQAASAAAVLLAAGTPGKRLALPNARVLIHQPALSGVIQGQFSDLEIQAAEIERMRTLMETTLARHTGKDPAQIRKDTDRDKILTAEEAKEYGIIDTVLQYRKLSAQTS
T7 sequence (Q92851 220-521, species assumed): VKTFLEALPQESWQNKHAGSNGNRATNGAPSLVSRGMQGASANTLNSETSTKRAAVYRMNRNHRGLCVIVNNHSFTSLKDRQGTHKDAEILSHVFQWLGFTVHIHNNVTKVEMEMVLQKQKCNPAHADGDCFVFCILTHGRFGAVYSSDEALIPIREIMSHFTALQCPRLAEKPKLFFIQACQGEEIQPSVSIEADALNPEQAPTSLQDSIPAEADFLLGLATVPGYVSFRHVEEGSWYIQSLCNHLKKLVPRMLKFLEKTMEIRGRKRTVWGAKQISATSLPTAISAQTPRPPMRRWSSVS
Chain of Chymase (P23946 22-247, species assumed): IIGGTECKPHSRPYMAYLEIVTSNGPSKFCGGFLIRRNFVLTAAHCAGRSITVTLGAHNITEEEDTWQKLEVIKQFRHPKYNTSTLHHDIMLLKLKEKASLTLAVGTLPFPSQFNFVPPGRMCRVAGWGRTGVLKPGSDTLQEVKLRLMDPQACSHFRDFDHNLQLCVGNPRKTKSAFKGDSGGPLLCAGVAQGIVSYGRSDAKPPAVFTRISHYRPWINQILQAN
T4 sequence (P51878 137-434, species assumed): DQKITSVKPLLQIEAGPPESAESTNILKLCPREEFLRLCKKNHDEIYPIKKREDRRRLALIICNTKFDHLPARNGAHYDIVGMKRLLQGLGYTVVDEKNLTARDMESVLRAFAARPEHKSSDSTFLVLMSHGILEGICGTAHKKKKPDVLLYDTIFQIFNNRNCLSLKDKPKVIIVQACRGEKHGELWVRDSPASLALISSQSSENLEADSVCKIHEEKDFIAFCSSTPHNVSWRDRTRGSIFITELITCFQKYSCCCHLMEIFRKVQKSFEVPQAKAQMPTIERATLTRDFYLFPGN
Chain of Cathepsin V (O60911 114-334, species assumed): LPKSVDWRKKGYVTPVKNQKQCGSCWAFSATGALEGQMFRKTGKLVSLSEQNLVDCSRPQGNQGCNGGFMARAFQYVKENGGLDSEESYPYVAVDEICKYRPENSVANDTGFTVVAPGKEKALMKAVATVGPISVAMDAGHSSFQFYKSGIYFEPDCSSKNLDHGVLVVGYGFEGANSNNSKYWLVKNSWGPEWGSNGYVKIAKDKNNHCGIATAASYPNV
T2 sequence (P42575 whole entry, species assumed): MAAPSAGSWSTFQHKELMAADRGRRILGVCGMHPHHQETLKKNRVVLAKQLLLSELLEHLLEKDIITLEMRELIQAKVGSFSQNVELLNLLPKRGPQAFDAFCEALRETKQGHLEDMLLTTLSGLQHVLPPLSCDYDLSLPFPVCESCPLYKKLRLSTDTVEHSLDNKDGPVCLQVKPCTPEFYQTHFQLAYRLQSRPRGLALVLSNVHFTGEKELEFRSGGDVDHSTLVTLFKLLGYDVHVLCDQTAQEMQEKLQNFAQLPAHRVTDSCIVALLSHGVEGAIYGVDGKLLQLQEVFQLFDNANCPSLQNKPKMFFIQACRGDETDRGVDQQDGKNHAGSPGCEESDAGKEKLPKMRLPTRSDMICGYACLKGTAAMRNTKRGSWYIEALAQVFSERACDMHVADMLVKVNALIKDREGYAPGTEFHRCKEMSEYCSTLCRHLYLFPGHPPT
T11 sequence (P53634 25-463, species assumed): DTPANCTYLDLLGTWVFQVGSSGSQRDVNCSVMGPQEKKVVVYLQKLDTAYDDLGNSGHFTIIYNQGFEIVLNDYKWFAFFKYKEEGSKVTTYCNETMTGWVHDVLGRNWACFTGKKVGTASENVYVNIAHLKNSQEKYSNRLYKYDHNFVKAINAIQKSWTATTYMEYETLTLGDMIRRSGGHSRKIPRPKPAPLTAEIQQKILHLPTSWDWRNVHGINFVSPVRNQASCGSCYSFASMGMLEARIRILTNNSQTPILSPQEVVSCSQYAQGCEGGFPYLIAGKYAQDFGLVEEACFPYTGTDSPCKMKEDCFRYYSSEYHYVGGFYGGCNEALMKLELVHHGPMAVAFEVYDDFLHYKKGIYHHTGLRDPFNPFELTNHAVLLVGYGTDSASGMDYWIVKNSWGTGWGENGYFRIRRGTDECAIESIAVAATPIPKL
T1 sequence (P29466 120-404, species assumed): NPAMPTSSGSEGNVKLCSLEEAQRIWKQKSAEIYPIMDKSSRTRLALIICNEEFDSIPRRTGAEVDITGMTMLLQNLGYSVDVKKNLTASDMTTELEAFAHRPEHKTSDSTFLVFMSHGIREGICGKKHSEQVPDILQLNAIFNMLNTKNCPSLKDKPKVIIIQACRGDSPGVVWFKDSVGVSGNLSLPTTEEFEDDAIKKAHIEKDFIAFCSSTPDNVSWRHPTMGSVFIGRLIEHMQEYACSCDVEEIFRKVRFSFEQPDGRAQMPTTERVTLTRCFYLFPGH
T6 sequence (P55211 whole entry, species assumed): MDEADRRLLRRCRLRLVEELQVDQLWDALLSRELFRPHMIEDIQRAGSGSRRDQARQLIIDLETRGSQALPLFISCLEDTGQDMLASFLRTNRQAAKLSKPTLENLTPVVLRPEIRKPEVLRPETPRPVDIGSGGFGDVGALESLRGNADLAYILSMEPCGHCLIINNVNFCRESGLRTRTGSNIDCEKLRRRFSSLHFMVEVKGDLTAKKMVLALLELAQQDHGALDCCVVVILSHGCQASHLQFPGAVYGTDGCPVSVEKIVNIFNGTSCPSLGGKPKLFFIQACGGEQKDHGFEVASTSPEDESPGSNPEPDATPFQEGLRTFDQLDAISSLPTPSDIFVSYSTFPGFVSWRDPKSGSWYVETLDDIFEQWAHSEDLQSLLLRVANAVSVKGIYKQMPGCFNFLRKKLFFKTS
T12 sequence (P00784 134-345): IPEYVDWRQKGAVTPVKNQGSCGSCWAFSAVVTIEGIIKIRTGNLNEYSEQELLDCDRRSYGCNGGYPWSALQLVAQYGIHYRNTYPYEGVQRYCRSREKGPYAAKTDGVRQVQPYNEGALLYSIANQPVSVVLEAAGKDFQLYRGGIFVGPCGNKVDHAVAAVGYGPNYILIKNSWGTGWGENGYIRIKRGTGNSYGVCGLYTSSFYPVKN
T13 sequence (P08311 21-255, species assumed): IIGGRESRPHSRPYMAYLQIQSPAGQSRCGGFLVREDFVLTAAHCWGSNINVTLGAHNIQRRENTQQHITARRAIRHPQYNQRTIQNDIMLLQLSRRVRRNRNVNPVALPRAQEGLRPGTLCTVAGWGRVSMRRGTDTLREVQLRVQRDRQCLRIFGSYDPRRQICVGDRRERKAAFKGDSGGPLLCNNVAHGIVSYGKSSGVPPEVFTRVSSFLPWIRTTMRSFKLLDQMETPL
Chain of Cathepsin H (P09668 98-335, species assumed): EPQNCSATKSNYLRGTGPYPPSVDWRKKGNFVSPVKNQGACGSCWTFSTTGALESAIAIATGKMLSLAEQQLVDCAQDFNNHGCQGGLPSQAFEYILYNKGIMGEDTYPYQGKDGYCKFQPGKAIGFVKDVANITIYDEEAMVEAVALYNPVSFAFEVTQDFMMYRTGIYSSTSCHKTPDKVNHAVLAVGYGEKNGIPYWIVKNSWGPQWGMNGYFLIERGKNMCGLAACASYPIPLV
Chain of Cathepsin S (P25774 115-331, species assumed): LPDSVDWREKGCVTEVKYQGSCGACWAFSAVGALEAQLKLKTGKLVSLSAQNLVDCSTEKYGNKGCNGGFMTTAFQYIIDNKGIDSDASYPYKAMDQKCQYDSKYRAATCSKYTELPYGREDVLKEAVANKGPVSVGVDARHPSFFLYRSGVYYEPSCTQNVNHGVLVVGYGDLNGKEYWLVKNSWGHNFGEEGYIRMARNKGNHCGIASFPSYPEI
Chain of Cathepsin L (P07711 114-333, species assumed): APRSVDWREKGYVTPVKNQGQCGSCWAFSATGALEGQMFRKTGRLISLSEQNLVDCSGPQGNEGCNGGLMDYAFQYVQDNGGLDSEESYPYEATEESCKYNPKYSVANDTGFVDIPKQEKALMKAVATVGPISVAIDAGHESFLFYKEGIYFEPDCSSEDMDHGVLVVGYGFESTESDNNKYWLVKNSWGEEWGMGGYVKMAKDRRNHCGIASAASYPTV
T14 sequence (P55210 whole entry, species assumed): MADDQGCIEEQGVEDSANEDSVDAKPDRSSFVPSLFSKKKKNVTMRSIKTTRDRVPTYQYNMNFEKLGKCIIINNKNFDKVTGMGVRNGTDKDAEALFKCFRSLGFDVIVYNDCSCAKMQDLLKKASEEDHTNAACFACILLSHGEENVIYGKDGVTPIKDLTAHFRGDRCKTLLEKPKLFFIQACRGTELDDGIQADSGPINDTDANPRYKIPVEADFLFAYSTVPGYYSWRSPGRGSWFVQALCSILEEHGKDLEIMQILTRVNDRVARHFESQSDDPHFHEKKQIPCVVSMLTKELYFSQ
Chain of Kallikrein 1 (P06870 25-262, species assumed): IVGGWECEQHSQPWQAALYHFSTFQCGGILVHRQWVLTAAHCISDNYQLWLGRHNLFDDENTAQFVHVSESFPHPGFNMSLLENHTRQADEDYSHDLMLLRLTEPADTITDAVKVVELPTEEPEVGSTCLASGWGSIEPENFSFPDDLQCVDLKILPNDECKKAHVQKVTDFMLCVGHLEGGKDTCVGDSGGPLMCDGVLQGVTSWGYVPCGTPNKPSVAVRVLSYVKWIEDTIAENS

For `CC[C@H](C)[C@H](NC(C)=O)C(=O)N[C@@H](CCC(=O)O)C(=O)N[C@H](C(=O)N[C@H](C=O)CC(=O)O)[C@@H](C)O` [IETD-CHO] (Ac-IETD-aldehyde), the IC50 amounted to 0.0545 µM in experiment [1]; 0.626 µM in experiment [2]; 2.73 µM in experiment [3]; 0.0213 µM in experiment [4]; 0.00166 µM in [5]; 0.0553 µM in experiment [6]. In addition, the half-maximal inhibitory concentration (IC50) in experiment [7] worked out at 0.0177 µM; in experiment [8] it was 0.68 µM.
With `O=C(N[C@@H](Cc1ccccc1)C(=O)N[C@@H](CCc1ccccc1)B(O)O)c1cnccn1` [Compound 32, ((R)-3-phenyl-1-((S)-3-phenyl-2-(pyrazine-2-carboxamido)propanamido)propyl)boronic acid], in experiment [9], the “M. smegmatis ΔprcAB MIC50” value worked out at 7 ± 1 µM. In addition, in experiment [10], the MIC50 was determined as 6 µM (≈ 2.59 µg/mL) and the MIC90 is 25 µM (≈ 10.8 µg/mL). The IC50 in experiment [11] is 7.3 ± 1.9 µM. In addition, the IC50 in [12] amounted to 70 ± 10 nM.
With `CC(C)C[C@H](NC(=O)[C@H]1O[C@@H]1C(=O)O)C(=O)NCCCCN=C(N)N` [Compound E64], the IC50 in [13] came to 0.098 µM; in experiment [14] it was 0.00987 µM; in experiment [15], 0.607 µM; in experiment [16] it was 0.198 µM; in experiment [17], 0.00999 µM; in experiment [18], 0.00939 µM. Further, the IC50 in [19] was found to be 0.0118 µM; in experiment [20] it was 0.000936 µM.
With `O=C(N[C@@H](Cc1ccccc1)C(=O)N[C@@H](CCc1ccccc1)B(O)O)c1ccccc1` [Compound 51, ((R)-1-((S)-2-benzamido-3-phenylpropanamido)-3-phenylpropyl)boronic acid], the “M. smegmatis ΔprcAB MIC50” value in experiment [9] is 2.7 ± 0.5 µM. Also, the MIC50 in [10] came out at 1 ± 0.2 µM (≈ 0.43 µg/mL). Further, the MIC90 in experiment [10] came to 6 ± 0.2 µM (≈ 2.58 µg/mL). Moreover, the IC50 in experiment [11] worked out at 1.5 ± 0.5 µM; in [12] it was 167 ± 59 nM.
Turning to `CC(C)C[C@H](NC(=O)[C@@H](NC(=O)N[C@@H](Cc1ccccc1)C(=O)O)[C@@H]1CCN=C(N)N1)C(=O)N[C@H](C=O)Cc1ccccc1` [Chymostatin, reference compound], the IC50 worked out at 3.83 µM in [21] and 0.0915 µM in experiment [22].
In the case of `CC(=O)N[C@@H](CC(=O)O)C(=O)N[C@@H](CCC(=O)O)C(=O)N[C@H](C(=O)N[C@H](C=O)CC(=O)O)C(C)C` [DEVD-CHO], the IC50 in experiment [23] was found to be 0.0011 µM.
In experiment [24], `CC(=O)N[C@@H](CC(C)C)C(=O)N[C@@H](CC(C)C)C(=O)N[C@H](C=O)CCCNC(=N)N` [Leupeptin, reference compound] showed a concentration for half-maximal inhibition (IC50) of 26.7 µM.
`CC(C)C[C@H](NC(=O)CCc1ccccc1)B(O)O` [Compound 25, (R)-(3-methyl-1-(3-phenylpropanamido)butyl)boronic acid]: the “M. smegmatis ΔprcAB MIC50” value in experiment [9] is above 200 µM. For the same molecule, the IC50 in experiment [11] was above 200 µM; in experiment [12], 250 nM.
With `O=C(N[C@@H](Cc1ccccc1)C(=O)N[C@@H](Cc1ccccc1)B(O)O)c1cnccn1` [Compound 31, ((R)-2-phenyl-1-((S)-3-phenyl-2-(pyrazine-2-carboxamido)propanamido)ethyl)boronic acid], the “M. smegmatis ΔprcAB MIC50” value in experiment [9] was 16.5 µM and 16.5 ± 8.5 µM. Besides, in experiment [10], the MIC50 worked out at 6 µM (≈ 2.51 µg/mL). Besides, the MIC90 in [10] is 20 µM (≈ 8.37 µg/mL). Further, the IC50 is 7.5 ± 2.6 µM in [11] and 50 ± 10 nM in experiment [12].
In turn, `CC(C)C[C@H](NP(=O)(O)O[C@@H]1O[C@@H](C)[C@H](O)[C@@H](O)[C@H]1O)C(=O)N[C@@H](Cc1c[nH]c2ccccc12)C(=O)O` [Phosphoramidon] gave an IC50 in experiment [25] of 0.0422 µM.
